Where “and” joins values, the source holds several entries; their conditions need not be identical. Equal values may be shown once. Entries after “also recorded” stand apart in the source; their conditions may differ. Read-outs that look alike come from different tables or passages of the source.
How the values were obtained:
[1] = system: SARS-CoV-2; test: microbe, parasite or virus in culture; assay type: cell-based; details: for EC25: concentration used in combinations; for virus titer: Calu-3, MOI 0.1, three columns per treatment
[2] = Cytotoxicity assay (XTT); assay type: cell-based; details: human
Experimental: Monolayers of 1.5 × 10^4 cells in 96-well plates were treated for 3 days with various concentrations (semi-log dilutions from 1000 to 10 µM) of the antiviral drugs. Then, 5 mg/ml 2,3-bis-(2-methoxy-4-nitro-5-sulfophenyl)-2H-tetrazolium-5-carboxanilide (XTT) in DMEM was added to the cells in the presence of 0.01% N-methyl dibenzopyrazine methyl sulfate (PMS). After incubating for 4 h at 37 °C, the cells were measured in a spectrophotometer at 492 nm and 620 nm.

[3] = system: SARS-CoV-2; assay type: cell-based; set-up: Response: unit not given here
[4] = target: SARS-CoV-2 exonuclease complex (nsp14/nsp10) (Severe acute respiratory syndrome coronavirus 2, UniProt P0DTD1); assay type: biochemical
[5] = Table S-1, 3 days treatment, XTT, read-out: CC50
[6] = Drug2 100 nM alone (Drug1 0 nM)
[7] = Drug2 1000 nM alone (Drug1 0 nM)
[8] = Drug2 5000 nM alone (Drug1 0 nM)
[9] = Severe acute respiratory syndrome coronavirus 2, 48 h, Calu-3 cells, MOI 0.1, 48-72 h, PFU in Vero E6, NS5A inhibitor at fixed concentration in combinations
[10] = combined with Ombitasvir, Calu-3 cells
[11] = Drug1 100 nM alone (Drug2 0 nM)
[12] = Drug1 1000 nM alone (Drug2 0 nM)
[13] = Drug1 10000 nM alone (Drug2 0 nM)
[14] = 30 nM nsp14/nsp10, 500 nM RNA, 30, 100, 300 µM

## COC(=O)N[C@H](C(=O)N1CCC[C@H]1C(=O)Nc1ccc([C@@H]2CC[C@@H](c3ccc(NC(=O)[C@@H]4CCCN4C(=O)[C@@H](NC(=O)OC)C(C)C)cc3)N2c2ccc(C(C)(C)C)cc2)cc1)C(C)C [Ombitasvir]
[1]; Calu-3 cells
  EC25: 0.1 µM
[2]; [5]
  CC50 at 3 days: 70 ± 12 µM
[3]; Conc1 0 nM, Conc2 10 nM
  Response (percentage of inhibition): 2%
[3]; Conc1 0 nM, Conc2 100 nM
  Response (percentage of inhibition): 20%
[3]; Conc1 0 nM, Conc2 1000 nM
  Response (percentage of inhibition): 50%
[3]; Conc1 0 nM, Conc2 5000 nM
  Response (percentage of inhibition): 75%
[3]; Drug2 10 nM alone (Drug1 0 nM)
  Response: 2
[3]; [6]
  Response: 20
[3]; [7]
  Response: 50
[3]; [8]
  Response: 75
[3]; with Favipiravir
  combination effect (SynergyFinder): synergistic (scores above 10)
[3]; with RDV
  combination effect (SynergyFinder): synergistic (scores above 10)
[3]; with Sofosbuvir
  combination effect (SynergyFinder): synergistic (scores above 10)
[3]; with Tenofovir
  combination effect (SynergyFinder): synergistic (scores above 10)

## CCC(CC)COC(=O)[C@H](C)N[P@](=O)(OC[C@H]1O[C@@](C#N)(c2ccc3c(N)ncnn23)[C@H](O)[C@@H]1O)Oc1ccccc1 [Remdesivir]
[1]; Calu-3 cells, MOI 0.1, 48-72 h, PFU in Vero E6, NS5A inhibitor at fixed concentration in combinations
  EC99 Mean: 1.1 µM
[1]; Drug Concentration 0.01 μM, listed as RDV
  virus titer: 6.40E+05 PFU/mL and 5.76E+05 PFU/mL and 6.08E+05 PFU/mL
[1]; Drug Concentration 0.1 μM, listed as RDV
  virus titer: 3.20E+05 PFU/mL and 1.92E+05 PFU/mL and 2.56E+05 PFU/mL
[1]; Drug Concentration 10 μM
  virus titer: 2.00E+03 PFU/mL
[1]; by Pibrentasvir (0.1 μM)
  fold improvement of efficacy at the 90% level: six-
  fold improvement of efficacy at the 99% level: threefold
[2]; [5]
  CC50 at 3 days: 480 ± 55 µM
[3]; Conc1 1 nM, Conc2 0 nM
  Response (percentage of inhibition): 20%
[3]; Conc1 10 nM, Conc2 0 nM
  Response (percentage of inhibition): 43%
[3]; Conc1 100 nM, Conc2 0 nM
  Response (percentage of inhibition): 76.92%
[3]; Conc1 1000 nM, Conc2 0 nM
  Response (percentage of inhibition): 99.13%

## COC(=O)N[C@H](C(=O)N1CCC[C@H]1c1nc(-c2ccc(-c3ccc(-c4c[nH]c([C@@H]5CCCN5C(=O)[C@@H](NC(=O)OC)C(C)C)n4)cc3)cc2)c[nH]1)C(C)C [Daclatasvir]
[1]; Calu-3 cells
  EC25: 0.5 µM
[1]; [9]
  EC50: 0.7 µM
  EC90: 3.8 µM
[2]; [5]
  CC50 at 3 days: 38 ± 5 µM
[3]; Conc1 0 nM, Conc2 100 nM
  Response (percentage of inhibition): 3%
[3]; Conc1 0 nM, Conc2 500 nM
  Response (percentage of inhibition): 10%
[3]; Conc1 0 nM, Conc2 1000 nM
  Response (percentage of inhibition): 45%
[3]; Conc1 0 nM, Conc2 5000 nM
  Response (percentage of inhibition): 62%
[3]; [6]
  Response: 3
[3]; Drug2 500 nM alone (Drug1 0 nM)
  Response: 10
[3]; [7]
  Response: 45
[3]; [8]
  Response: 62
[3]; with RDV
  combination effect (SynergyFinder): additive (between 10 and −10)
[3]; with the other RdRp inhibitors tested (Fig. 8b-d)
  combination effect (SynergyFinder): synergistic (scores above 10)

## NC(=O)c1nc(F)cnc1O [Favipiravir, 6-fluoro-3-hydroxy-2-pyrazinecarboxamide]
[1]; Drug Concentration 0.01 μM
  virus titer: 8.96E+05 PFU/mL and 1.41E+06 PFU/mL
[1]; Drug Concentration 0.1 μM
  virus titer: 5.76E+05 PFU/mL and 7.04E+05 PFU/mL
[1]; Drug Concentration 1 μM
  virus titer: 4.48E+05 PFU/mL and 5.12E+05 PFU/mL
[1]; Drug Concentration 10 μM
  virus titer: 4.16E+05 PFU/mL and 2.24E+05 PFU/mL
[1]; [9]
  EC50: 7.8 µM
[1]; by Pibrentasvir (0.1 μM)
  fold increase of potency: tenfold
[1]; [10]
  inhibition of SARS-CoV-2: 2 log10
  reduction of virus replication: 99%
[2]
  CC50 at 3 days: 670 ± 118 µM
[3]; Drug1 10 nM alone (Drug2 0 nM)
  Response: 10
[3]; [11]
  Response: 49
[3]; [12]
  Response: 63
[3]; [13]
  Response: 70

## CC(C)c1nc(CN(C)C(=O)N[C@H](C(=O)N[C@@H](Cc2ccccc2)C[C@H](O)[C@H](Cc2ccccc2)NC(=O)OCc2cncs2)C(C)C)cs1 [Ritonavir]
[4]; [14]
  inhibition of SARS-CoV-2 exonuclease activity: exonuclease activity was inhibited; also recorded: inhibit the SARS-CoV-2 exonuclease in a concentration-dependent manner, but with less potency than Pibrentasvir and Ombitasvir

## CC(C)OC(=O)[C@H](C)N[P@](=O)(OC[C@H]1O[C@@H](n2ccc(=O)[nH]c2=O)[C@](C)(F)[C@@H]1O)Oc1ccccc1 [Sofosbuvir]
[1]; Drug Concentration 0.01 μM
  virus titer: 6.40E+05 PFU/mL and 1.28E+06 PFU/mL and 9.60E+05 PFU/mL
[1]; Drug Concentration 1 μM
  virus titer: 3.52E+05 PFU/mL
[2]; [5]
  CC50 at 3 days: 512 ± 34 µM
[3]; Conc1 10 nM, Conc2 0 nM
  Response (percentage of inhibition): 10%
[3]; Conc1 100 nM, Conc2 0 nM
  Response (percentage of inhibition): 20%
[3]; Conc1 1000 nM, Conc2 0 nM
  Response (percentage of inhibition): 74.62%
[3]; Conc1 10000 nM, Conc2 0 nM
  Response (percentage of inhibition): 76.92%

## COC(=O)N[C@H](C(=O)N1CCC[C@H]1c1nc2cc([C@H]3CC[C@H](c4cc5nc([C@@H]6CCCN6C(=O)[C@@H](NC(=O)OC)[C@@H](C)OC)[nH]c5cc4F)N3c3cc(F)c(N4CCC(c5ccc(F)cc5)CC4)c(F)c3)c(F)cc2[nH]1)[C@@H](C)OC [Pibrentasvir]
[4]; 500 nM RNA, 50 nM nsp14/nsp10, 37 °C, 15 min, varying amounts of inhibitor (Pibrentasvir 1, 10, 20 μM)
  inhibition of SARS-CoV-2 exonuclease activity: reduced exonuclease activity in a concentration-dependent manner
[4]; 20 μM, Favipiravir-, NHC- and AT-9010-terminated RNA
  inhibition of SARS-CoV-2 exonuclease activity: exonuclease activity was largely abrogated
[4]; 20 µM, RNA with delayed termination by Remdesivir, 400 nM RNA
  inhibition of SARS-CoV-2 exonuclease activity: exonuclease activity was inhibited
[4]; 20 µM, Sofosbuvir- and Remdesivir-terminated RNA
  inhibition of SARS-CoV-2 exonuclease activity: exonuclease activity was substantially inhibited
[4]; 20 µM, Tenofovir-terminated RNA
  inhibition of SARS-CoV-2 exonuclease activity: exonuclease activity was almost completely eliminated
[1]; Calu-3 cells
  EC25: 0.1 µM
[2]; [5]
  CC50 at 3 days: 22 ± 3 µM
[3]; Conc1 0 nM, Conc2 10 nM
  Response (percentage of inhibition): 2%
[3]; Conc1 0 nM, Conc2 100 nM
  Response (percentage of inhibition): 20%
[3]; Conc1 0 nM, Conc2 1000 nM
  Response (percentage of inhibition): 50%
[3]; Conc1 0 nM, Conc2 5000 nM
  Response (percentage of inhibition): 75%
[3]; Drug2 10 nM alone (Drug1 0 nM)
  Response: 2
[3]; [6]
  Response: 20
[3]; [7]
  Response: 50
[3]; [8]
  Response: 75
[3]; with Favipiravir
  combination effect (SynergyFinder): synergistic (scores above 10)
[3]; with RDV
  combination effect (SynergyFinder): synergistic (scores above 10)
[3]; with Sofosbuvir
  combination effect (SynergyFinder): additive (between 10 and −10)
[3]; with Tenofovir
  combination effect (SynergyFinder): additive (between 10 and −10)

## CC(C)OC(=O)OCOP(=O)(CO[C@H](C)Cn1cnc2c(N)ncnc21)OCOC(=O)OC(C)C [Tenofovir, Tenofovir disoproxil]
[4]; no inhibitor, 37 °C, 15 min, compared with A-terminated natural RNA
  excision of the incorporated nucleotide analogue from RNA by the exonuclease: mostly resistant to excision by the SARS-CoV-2 exonuclease
[1]; Drug Concentration 1 μM
  virus titer: 1.02E+06 PFU/mL and 5.76E+05 PFU/mL and 7.98E+05 PFU/mL
[1]; Drug Concentration 10 μM
  virus titer: 8.00E+04 PFU/mL and 4.00E+04 PFU/mL and 6.00E+04 PFU/mL
[1]; [9]
  EC50: 4.3 µM
[1]; by Pibrentasvir (0.1 μM)
  fold increase of potency: tenfold
[2]; [5]
  CC50 at 3 days: 91 ± 25 µM
[3]; Drug1 10 nM alone (Drug2 0 nM)
  Response: 5
[3]; [11]
  Response: 30
[3]; [12]
  Response: 58.46
[3]; [13]
  Response: 88.46

## Cc1cccc(C)c1OCC(=O)N[C@@H](Cc1ccccc1)[C@@H](O)C[C@H](Cc1ccccc1)NC(=O)[C@H](C(C)C)N1CCCNC1=O [Lopinavir]
[4]; [14]
  inhibition of SARS-CoV-2 exonuclease activity: exonuclease activity was inhibited; also recorded: inhibit the SARS-CoV-2 exonuclease in a concentration-dependent manner, but with less potency than Pibrentasvir and Ombitasvir
